Assay results from article PMC7762503, “Pathomechanism characterization and potential therapeutics identification for SCA3 targeting neuroinflammation” (Aging (Albany NY), 2020).

Key:
[1] = MTT cytotoxicity assay, HMC3 cells; format: cell-based; conditions: human, 0.1−100 μM, 28 h treatment, read-out: IC50 (cytotoxicity, MTT viability)
Protocol: (§1) To evaluate compound cytotoxicity, 2 × 10^4 (HMC3) or 1 × 10^4 (SH-SY5Y) cells were plated on 48-well dishes, grown for 20 h, and treated with the tested compounds (0.1−100 μM). After 28 h (HMC3) or 6 days (SH-SY5Y), 20 μl of 3-(4,5-dimethylthiazol-2-yl)-2,5-diphenyltetrazolium bromide (MTT) (5 mg/ml) was added to the cells at 37°C for 3 h. 200 μl of lysis buffer (10% Triton X-100, 0.1 N HCl, 18% isopropanol) was then added to dishes and the absorbance of the insoluble purple formazan product at OD 570 nm was read by a FLx800 fluorescence microplate spectrophotometer (Bio-Tek, Winooski, VT, USA). The IC50 of the tested compounds were calculated using the interpolation method.

[2] = MTT cytotoxicity assay, SH-SY5Y cells; format: cell-based; conditions: human, 0.1−100 μM, 6 days treatment, read-out: IC50 (cytotoxicity, MTT viability)
Protocol: as §1

[3] = DPPH radical-scavenging assay; conditions: 200 μM DPPH, compounds 10–160 μM, 30 min, room temperature
Protocol: The DPPH radical-scavenging activity was measured in an ethanol mixture containing 200 μM DPPH (Sigma-Aldrich) radical solution and the tested compounds (10–160 μM). The solution was vortexed and incubated for 30 min at room temperature. The scavenging capacity was measured by monitoring the decrease in absorbance at 517 nm with a microplate spectrophotometer (Multiskan GO, Thermo Fisher Scientific). The half maximal effective concentrations (EC50) for inhibition of the formation of DPPH radicals were calculated using the interpolation method.

ATXN3/Q75-GFP [4] = experiment: High content polyQ aggregation analysis, ATXN3/Q75-GFP SH-SY5Y cells; format: cell-based, human; conditions: 10 μM compound, ATXN3/Q75-GFP-expressing cells; for reduction of aggregation: vs untreated 2.8%
Protocol: (§2) ATXN3/Q75-GFP SH-SY5Y cells were plated on 24-well (1 × 10^4/well) dishes, and retinoic acid (10 μM; Sigma-Aldrich) was added to initiate neuronal differentiation. On the second day, cells were treated with the tested compound (10 μM) for 8 h before ATXN3-GFP expression induction by adding doxycycline (5 μg/ml). For comparison, cells without inducing ATXN3/Q75-GFP expression were included. The cells were kept in the medium containing retinoic acid, doxycycline and test compound for 6 days. For the cells with inflammatory stimulation, HMC3 conditioned medium with (CM/+IFN-γ) or without (CM/–IFN-γ) IFN-γ stimulation was added at a 1:1 ratio in the last two days. On the eighth day, cells were stained with Hoechst 33342 (0.1 μg/ml; Sigma-Aldrich) for 30 min, and images of the cells were automatically obtained using an ImageXpressMICRO high content analysis (HCA) system (Molecular Devices, San Jose, CA, USA). Excitation/emission filters were at 482/536 and 377/447 nm for enhanced GFP and Hoechst 33342, respectively. Aggregation was determined by Transfluor technology based on GFP fluorescence intensity. Neurite length, process and branch of ATXN3/Q75-GFP-expressing cells were analyzed by using Metamorph microscopy automation and image analysis software (neurite outgrowth application module, Molecular Devices). In addition, cells were fixed, permeated and stained with neuronal class III β-tubulin (TUBB3) antibody (1:1000; Covance, Princeton, NJ, USA), followed by anti-rabbit Alexa Fluor ®555 antibody (1:1000; Thermo Fisher Scientific) for neurite outgrowth analysis. To quantify neurite outgrowth, microscopic images were segmented with multi-colored mask to assign each outgrowth to a cell body for quantification. In general, 10^4 cells in each biological replicate were analyzed.

[5] = test system: ATXN3/Q75-GFP SH-SY5Y cells; experiment: Neurite outgrowth analysis, ATXN3/Q75-GFP SH-SY5Y cells; format: cell-based, human; conditions: 10 μM compound, ATXN3/Q75-GFP-expressing cells; for neurite branch: untreated 1.0; for neurite process: untreated 1.8; for neurite length: untreated 23.6 μm
Protocol: as §2

[6] = test system: ATXN3/Q75-GFP SH-SY5Y cells; experiment: Neurite outgrowth analysis, CM/+IFN-γ-inflamed ATXN3/Q75-GFP SH-SY5Y cells; format: cell-based, human; conditions: 10 μM compound; for neurite process: untreated 1.4; for neurite length: untreated 14.4 μm
Protocol: as §2

ATXN3/Q75-GFP [7] = experiment: Western blot of soluble ATXN3/Q75-GFP protein; format: cell-based, human; conditions: 10 μM compound; without compound = 100%
Protocol: Cells were lysed using buffer (50 mM Tris-HCl pH8.0, 0.5% sodium deoxycholate, 0.1% SDS, 150 mM NaCl, 2 mM EDTA, 50 mM NaF and 1% NP40) containing the protease inhibitor cocktail (Sigma-Aldrich). After sonication, the lysates were centrifuged at 12,000 × g for 10 min at 4°C. Protein concentrations were determined using a protein assay kit (Bio-Rad, Hercules, CA, USA), with albumin as standards. Total soluble proteins (20 μg) were electrophoresed on 10% SDS-polyacrylamide gel and transferred onto polyvinylidene difluoride membrane (Sigma-Aldrich) by reverse electrophoresis. After being blocked, the membrane was stained with ATXN3 (1:1000; GeneTex, Irvive, CA, USA), GFP (1:1000; Santa Cruz Biotechnology, Santa Cruz, CA, USA), CD68 (1:1000; Cell Signaling), IκBα (1:1000; Cell Signaling), p-IκBα (S32/36) (1:1000; Cell Signaling), P65 (1:1000; Cell Signaling), p-P65 (S536) (1:1000; Cell Signaling), JNK (1:1000; Cell Signaling), p-JNK (T183/Y185) (1:500; Cell Signaling), JUN, p-JUN (S63) (1:1000; Cell Signaling), P38 (1:1000; Cell Signaling), p-P38 (T180/Y182) (1:1000; Cell Signaling), STAT1 (1:1000; Cell Signaling), p-STAT1 (S727) (1:1000; Cell Signaling), or GAPDH (1:5000; MDBio Inc., Taipei, Taiwan) primary antibody at room temperature 2 h or 4°C overnight. The immune complexes were detected using horseradish peroxidase (HRP)-conjugated goat anti-mouse or goat anti-rabbit IgG antibody (1:5000; GeneTex) and chemiluminescent HRP substrate (Millipore, Billerica, MA, USA).

| EC50 [3] [µM] | DPPH scavenging activity EC50 [3] | SMILES | IC50 at 28 h [1] [µM] | IC50 at 6 days [2] [µM] | polyQ aggregation (cells with aggregates) (ATXN3/Q75-GFP [4]; untreated 2.8%) | neurite branch [5] | neurite process [5] | neurite length [5] | neurite process [6] | neurite length [6] | reduction of aggregation (ATXN3/Q75-GFP [4]) | soluble ATXN3/Q75-GFP protein (Western blot, GFP antibody) (ATXN3/Q75-GFP [7]) | neurite branch ([6]; untreated 0.6) |
| --- | --- | --- | --- | --- | --- | --- | --- | --- | --- | --- | --- | --- | --- |
| 27 | – | O=c1c(O)c(-c2ccc(O)cc2)oc2cc(O)cc(O)c12 [Kaempferol, kaempferol, reference compound] | – | – | – | – | – | – | – | – | – | – | – |
| 100 | – | O=C(c1ccccc1)c1cc2c(O)cccc2oc1=O [LM-031, 3-benzoyl-5-hydroxychromen-2-one] | > 100 | > 100 | – | 1.2 | 2.0–2.1 | 26.9–27.2 μm | 1.6 | 17.3–18.0 μm | 12–25% | 144−173% | 0.8 |
| – | no detectable DPPH-scavenging activity | CC(=O)/C(=C/c1ccccc1[N+](=O)[O-])Cc1c[nH]c2ccccc12 [NC009-1] | > 100 | 52 | – | 1.2 | 2.0–2.1 | 26.9–27.2 μm | 1.6 | 17.3–18.0 μm | 12–25% | 144−173% | – |
| – | no detectable DPPH-scavenging activity | O=[N+]([O-])c1cccc2nc(/C=C/c3cc4ccccc4nc3N3CCOCC3)ccc12 [VB-037] | > 100 | 78 | – | 1.2 | 2.0–2.1 | 26.9–27.2 μm | – | – | 12–25% | 144−173% | – |

| SMILES | EC50 [3] [µM] | DPPH scavenging activity EC50 [3] | IC50 at 28 h [1] [µM] | IC50 at 6 days [2] [µM] | polyQ aggregation (cells with aggregates) (ATXN3/Q75-GFP [4]; untreated 2.8%) | neurite branch [5] | neurite process [5] | neurite length [5] | neurite process [6] | neurite length [6] | reduction of aggregation (ATXN3/Q75-GFP [4]) | soluble ATXN3/Q75-GFP protein (Western blot, GFP antibody) (ATXN3/Q75-GFP [7]) | neurite branch ([6]; untreated 0.6) |
| --- | --- | --- | --- | --- | --- | --- | --- | --- | --- | --- | --- | --- | --- |
| CCCCC/C=C\C/C=C\C/C=C\C/C=C\CCCC(=O)Nc1ccc(O)cc1 [AM404, reference compound] | 141 | – | 84 | 49 | not reducing ATXN3/Q75 aggregation | 1.4 | 2.2 | 30.8 μm | 1.6 | 17.3–18.0 μm | – | – | – |
